Measurements as given in PubChem BioAssay (NCI).
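Dose response: 5 concentrations. Exposure: 48 h. Format: 96-well plates. Endpoint: linear interpolation; highest concentration if not reached. TGI denotes the concentration required for complete inhibition of growth.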

How the values were obtained:
Assay in all cases: NCI tumour cell line growth inhibition, 48 h
[1] = tested on: HOP-18 NSCLC
[2] = tested on: SNB-78 CNS
[3] = tested on: P388 leukemia
[4] = tested on: SN12K1 renal
[5] = tested on: P388/ADR leukemia
[6] = tested on: RXF-631 renal

SMILES | TGI [1] [µM] | TGI [2] [µM] | TGI [3] [µM] | TGI [4] [µM] | TGI [5] [µM] | TGI [6] [µM]
O=[N+]([O-])c1cnccc1-n1nnc2ccccc21 | > 100 | > 100 | 30.3 | > 95.5 |  | 
CSc1nc(NC2OC(CO)C(O)C(O)C2O)c(N)c(=O)[nH]1 (centres undefined) | > 100 | > 100 | > 100 | > 100 | > 100 | 
COC(=O)C(Cc1cc(OC)c(OC)c(OC)c1)(NC(=O)c1ccccc1)P(=O)(OC)OC (centres undefined) |  | > 100 |  |  |  | > 100
CC(=O)Nc1ccc(C(=O)NN2C(=O)C(Cl)C2/C=C/c2ccccc2)cc1 (centres undefined) | > 100 |  |  |  |  | 
O=C(O)c1cc2sc(C(=O)O)cc2s1 |  | > 100 |  |  |  | 
CCCCCCCCC[C@@H]1C[C@H](O)[C@H](Cc2ccccc2)N1C(=O)OC(C)(C)C |  | 41.3 |  |  |  | 
